According to patent US20230312481A1, “SUBSTITUTED (PHTHALAZIN-1-YLMETHYL)UREAS, SUBSTITUTED N-(PHTHALAZIN-1-YLMETHYL)AMIDES, AND ANALOGUES THEREOF” (priority 2020, published 2023):

Tested on: HBV rcDNA in HepDE19 cells
Assay: HepDE19 assay with bDNA quantitation of HBV rcDNA
Format: cell-based, hepatitis B virus
Conditions: HepDE19 cells, 7 day incubation, rcDNA measured by Quantigene 2.0 bDNA assay; top concentration 25 µM; read-out: DE-19bDNA EC50
Description: HepDE19 Assay With bDNA Quantitation of HBV rcDNA
HepDE19 (50,000 cells/well) were plated in 96-well collagen-coated tissue-culture treated microtiter plates in DMEM/F12 medium supplemented with 10% fetal bovine serum, 1% penicillin-streptomycin and 1 µg/mL tetracycline and incubated in a humidified incubator at 37° C. and 5% CO2 overnight. Next day, the cells were switched to fresh medium without tetracycline and incubated for 4 hours at 37° C. and 5% CO2. […] The final DMSO concentration in the assay was 0.5%. The plates were incubated for 7 days in a humidified incubator at 37° C. and 5% CO2. Following a 7 day-incubation, the level of rcDNA present in the inhibitor-treated wells was measured using a Quantigene 2.0 bDNA assay kit (Affymetrix, Santa Clara, CA) with HBV specific custom probe set and manufacturers instructions. Concurrently, the effect of compounds on cell viability was assessed using replicate plates, plated at a density of 5,000 cells/well and incubated for 4 days, to determine the ATP content as a measure of cell viability using the cell-titer glo reagent (CTG; Promega Corporation, Madison, WI) as per manufacturer’s instructions.
Representative compounds of the disclosure were tested for their abilities to inhibit formation of relaxed circular DNA (rcDNA) in a HepDE19 assay, as described elsewhere herein.

Structure (SMILES) | EC50 [nM]
CC(c1n[nH]c(=O)c2cc(F)c(F)cc12)N(C)C(=O)c1ccc2cn[nH]c2c1 (single isomer, unassigned) [Compound 112, N-(1-(6,7-difluoro-4-oxo-3,4-dihydrophthalazin-1-yl)ethyl)-N-methyl-1H-indazole-6-carboxamide] | > 25000
CC(c1n[nH]c(=O)c2cc(F)c(F)cc12)N(C)C(=O)c1ccc2ncsc2c1 (single isomer, unassigned) [Compound 86, N-(1-(6,7-difluoro-4-oxo-3,4-dihydrophthalazin-l-yl)ethyl)-N-methylbenzo[d]thiazole-6-carboxamide] | ≥ 25000
CC(c1n[nH]c(=O)c2cc(F)c(F)cc12)N(C)C(=O)c1cc2c(C(F)F)cccn2c1 (single isomer, unassigned) [Compound 99, N-(1-(6,7-difluoro-4-oxo-3,4-dihydrophthalazin-1-yl)ethyl)-8-(difluoromethyl)-N-methylindolizine-2-carboxamide] | 10
CC(c1n[nH]c(=O)c2cc(F)c(F)cc12)N(C)C(=O)c1ccc2ncsc2c1 (single isomer, unassigned) [Compound 87, N-(1-(6,7-difluoro-4-oxo-3,4-dihydrophthalazin-l-yl)ethyl)-N-methylbenzo[d]thiazole-6-carboxamide] | 5570
CC(c1n[nH]c(=O)c2ccccc12)N(C)C(=O)Nc1ccc(F)c(Cl)c1 (single isomer, unassigned) [Compound 3, 3-(3-chloro-4-fluoro-phenyl)-1-methyl-1-[1-(4-oxo-3H-phthalazin-1-yl)ethyl]urea] | 14000
CC(c1n[nH]c(=O)c2cc(F)c(F)cc12)N(C)C(=O)c1cc(F)c(Br)c(F)c1 (single isomer, unassigned) [Compound 101, 4-bromo-N-(1-(6,7-difluoro-4-oxo-3,4-dihydrophthalazin-1-yl)ethyl)-3,5-difluoro-N-methylbenzamide] | 50

Same assay, conditions: Hepatitis B virus, HepDE19, 168 h, HepDE19 cells, 7 day incubation, rcDNA measured by Quantigene 2.0 bDNA assay; top concentration 25 µM; read-out: DE-19bDNA EC50

Structure (SMILES) | EC50 [nM]
CC(C)CN(C(=O)Nc1ccc(F)cc1)C(C)c1n[nH]c(=O)c2cc(F)ccc12 (racemic) [Compound 16, 1-(1-(6-fluoro-4-oxo-3,4-dihydrophthalazin-1-yl)ethyl)-3-(4-fluorophenyl)-1-isobutylurea] | 16
CC(c1n[nH]c(=O)c2cc(F)c(F)cc12)N(C)C(=O)c1cc2c(Cl)cccn2c1 (racemic) [Compound 75, 8-chloro-N-(1-(6,7-difluoro-4-oxo-3,4-dihydrophthalazin-1-yl)ethyl)-N-methylindolizine-2-carboxamide] | 60
CC(C)CN(C(=O)Nc1ccc(F)c(Cl)c1)C(C)c1n[nH]c(=O)c2cc(F)c(F)cc12 (racemic) [Compound 27, 3-(3-chloro-4-fluorophenyl)-1-(1-(6,7-difluoro-4-oxo-3,4-dihydrophthalazin-1-yl)ethyl)-1-isobutylurea] | 2
CC(c1n[nH]c(=O)c2cc(F)c(F)cc12)N(C)C(=O)c1ccc(F)c(Cl)c1 (racemic) [Compound 68, 3-chloro-N-(1-(6,7-difluoro-4-oxo-3,4-dihydrophthalazin-1-yl)ethyl)-4-fluoro-N-methylbenzamide] | 520
CC(c1n[nH]c(=O)c2cc(F)c(F)cc12)N(C)C(=O)c1cc2cc(F)c(F)cc2[nH]1 (racemic) [Compound 50, N-(1-(6,7-difluoro-4-oxo-3,4-dihydrophthalazin-1-yl)ethyl)-5,6-difluoro-N-methyl-1H-indole-2-carboxamide] | 40
CC(c1n[nH]c(=O)c2cc(F)c(F)cc12)N(C)C(=O)[C@@H]1Cc2ccccc2N1 (stereo partly drawn) [Compound 78, (2S)-N-(1-(6,7-difluoro-4-oxo-3,4-dihydrophthalazin-1-yl)ethyl)-N-methylindoline-2-carboxamide] | 3640
CC(C)CN(C(=O)Nc1ccc(F)cc1)C(C)c1nn(C)c(=O)c2cc(F)c(F)cc12 (racemic) [Compound 24, 1-(1-(6,7-difluoro-3-methyl-4-oxo-3,4-dihydrophthalazin-1-yl)ethyl)-3-(4-fluorophenyl)-1-isobutylurea] | 7
CC(c1n[nH]c(=O)c2cc(F)c(F)cc12)N(C)C(=O)c1cc2c(F)cccn2c1 (racemic) [Compound 77, N-(1-(6,7-difluoro-4-oxo-3,4-dihydrophthalazin-1-yl)ethyl)-8-fluoro-N-methylindolizine-2-carboxamide] | 8380
CC(c1n[nH]c(=O)c2cc(F)ccc12)N(C)C(=O)Nc1ccc(F)cc1 (racemic) [Compound 18, 1-(1-(6-fluoro-4-oxo-3,4-dihydrophthalazin-1-yl)ethyl)-3-(4-fluorophenyl)-1-methylurea] | 500
CC(c1n[nH]c(=O)c2ccccc12)N(C)C(=O)Nc1ccc(F)c(Cl)c1 (racemic) [Compound 1, 3-(3-chloro-4-fluoro-phenyl)-1-methyl-1-[1-(4-oxo-3H-phthalazin-1-yl)ethyl]urea] | 240

Same assay, conditions: Hepatitis B virus, HepDE19, 168 h, read-out: DE-19bDNA EC50

Structure (SMILES) | EC50 [nM]
C[C@H](c1n[nH]c(=O)c2cc(F)c(F)cc12)N(C)C(=O)c1cc2ccccc2[nH]1 [Compound 46, (R)-N-(1-(6,7-difluoro-4-oxo-3,4-dihydrophthalazin-1-yl)ethyl)-N-methyl-1H-indole-2-carboxamide] | 32
CC(c1n[nH]c(=O)c2cc(F)c(F)cc12)N(C)C(=O)c1ccc(Cl)cc1 (racemic) [Compound 69, 4-chloro-N-(1-(6,7-difluoro-4-oxo-3,4-dihydrophthalazin-1-yl)ethyl)-N-methylbenzamide] | 200
CC(c1n[nH]c(=O)c2cc(F)c(F)cc12)N(C)C(=O)c1ccccc1 (racemic) [Compound 74, N-(1-(6,7-difluoro-4-oxo-3,4-dihydrophthalazin-1-yl)ethyl)-N-methylbenzamide] | 17700
C[C@H](c1n[nH]c(=O)c2cc(F)c(F)cc12)N(C)C(=O)c1cc2sc(Cl)cc2[nH]1 [Compound 79, (R)-2-chloro-N-(1-(6,7-difluoro-4-oxo-3,4-dihydrophthalazin-1-yl)ethyl)-N-methyl-4H-thieno[3,2-b]pyrrole-5-carboxamide] | 30
C[C@H](c1n[nH]c(=O)c2cc(F)c(F)cc12)N(C)C(=O)Nc1ccc(F)c(Cl)c1 (single isomer, unassigned) [Compound 32] | 21
C[C@H](c1nn(C)c(=O)c2cc(F)c(F)cc12)N(C)C(=O)Nc1ccc(F)c(Cl)c1 [Compound 36, (R)-3-(3-chloro-4-fluorophenyl)-1-[1-(6,7-difluoro-3-methyl-4-oxo-phthalazin-1-yl)ethyl]-1-methyl-urea] | 13
C[C@@H](c1nn(C)c(=O)c2cc(F)c(F)cc12)N(C)C(=O)Nc1ccc(F)cc1 [Compound 38, (S)(1-(6,7-difluoro-3-methyl-4-oxo-3,4-dihydrophthalazinyl)ethyl)-3-(4-fluorophenyl)methylurea] | 8200
C[C@@H](c1nn(C)c(=O)c2cc(F)c(F)cc12)N(C)C(=O)Nc1ccc(F)c(Cl)c1 [Compound 37, (S)-3-(3-chloro-4-fluorophenyl)-1-(1-(6,7-difluoro-3-methyl-4-oxo-3,4-dihydrophthalazin-1-yl)ethyl)-1-methylurea] | 2300
C[C@H](c1n[nH]c(=O)c2cc(F)c(F)cc12)N(C)C(=O)Nc1cc(F)c(F)c(F)c1 [Compound 42, (R)(1-(6,7-difluoro-4-oxo-3,4-dihydrophthalazinyl)ethyl)methyl-3-(3,4,5-trifluorophenyl)urea] | 25
